# Entries after “also recorded” stand apart in the source; their conditions may differ. Where a name gives a salt, the structure may show the parent alone.
# Legend:
# [1] = Stability in presence of plasma and isolated hepatocytes; conditions: multiple species
# [2] = test system: S. aureus ATCC27660; experiment: Time-kill study; format: cell-based
# Procedure: Time-kill studies of Compound A versus E. coli ATCC25922, E. coli (lab strain) D31, and S. aureus ATCC27660 were determined in a standard protocol by measuring the time it takes to reduce the initial inoculums 3 log units. Three ml of cation-adjusted Mueller-Hinton medium was inoculated with 20 μL of frozen bacterial stock and incubated at 37° C. on a shaker platform (250 rpm) overnight. […] Compound A stock solution was prepared at 10 mg/mL in DMSO. Time points were collected and viable bacteria were counted on MH Agar plates after an 18 hour incubation. […] See, FIG. 1A and FIG. 1B.
# [3] = in vivo; conditions: rat, iv
# Procedure: Maximum tolerated dose (MTD) determinations were made in ascending/descending dose studies in mice and rats. Compound A was administered by either i.v. bolus injection in the tail vein of mice and rats or by i.v. infusion via catheter in the femoral vein of rats. At each dose, two to three animals were administered compound and clinical signs were recorded over a 4 to 7 day period. Gross necropsy was performed at the conclusion of the study.
# [4] = test system: NIH/3T3 cells; experiment: Cytotoxicity colorimetric assay, NIH/3T3; format: cell-based, mouse; conditions: vs S. aureus MIC
# Procedure: (§1) Cytotoxicity of Compound A was evaluated in a colorimetric assay using a transformed human liver cell line (HepG2, HB-8065) and an embryonic mouse cell line (NIH/3T3 cells, CRL-1658). This assay measures the bioreduction of a novel tetrazolium compound to a soluble formazan product by viable cells. HepG2 cells were seeded in 96 well plates at 2×10^4 cells/well in MEM medium with 10% fetal bovine serum (FBS) 24 hours prior to use. NIH/3T3 cells were seeded in 96 well plates at 2×10^4 cells/well in DMEM medium with 10% bovine calf serum (BCS) 24 hours prior to use. Cell monolayers were rinsed in serum-free media and incubated for one hour with Compound A in serum-free media. After incubation, the media was replaced with serum supplemented media and live cells were measured using the Cell Titer 96 Aqueous […] Assay kit (Promega, Madison, Wis.). EC50 values were determined using a four parameter logistic equation: Y=Bottom+(Top-Bottom)/(1+10^((LogEC50−X)*HillSlope)).
# [5] = Cytotoxicity colorimetric assay, NIH/3T3; format: cell-based, mouse; conditions: mouse, NIH/3T3 cells; one hour in serum-free media
# Procedure: as §1
# [6] = test system: MRSA ATCC 33591; experiment: Serial passage resistance, MRSA; format: cell-based, S. aureus; conditions: 0.5×MIC, 17 passages
# Procedure: (§2) Frozen bacterial stocks (20 μL) of S. aureus ATCC29213 or methicillin-resistant S. aureus (MRSA ATCC 33591) were inoculated into 3 mL cation-adjusted Mueller-Hinton medium and incubated at 37° C. on a shaker platform (250 rpm) overnight. The suspension was diluted to approximately 5×10^5 cfu/mL and inoculated into a polypropylene (Costar) 96-well round bottom plate (90 μL volumes). Compound stock solutions of Compound A and norfloxacin (Sigma Aldrich, St. Louis, Mo.; Catalogue# N9890) were prepared in DMSO and serial two-fold dilutions of compound were made in 0.01% acetic acid, 0.2% bovine serum albumin directly in the wells of the polypropylene plate at 10 μL/well. Final concentrations of Compound A were 50, 25, 12.5, 6.25, 3.13, 1.56, 0.78, 0.39, 0.19, 0.098, 0.049, and 0.024 μg/mL. Final concentration ranges of norfloxacin were 100, 50, 25, 12.5, 6.25, 3.13, 1.56, 0.78, 0.39, 0.19, 0.098, and 0.049 μg/mL. […] All samples were performed in triplicate. Following a 24 hour incubation at 37° C., cell growth was assessed by observing the presence of “acceptable growth”, defined by CLSI as a ≧2 mm button or definite turbidity. The MIC wells were defined as the lowest concentration where acceptable growth was not observed. For serial passage, 50 μL aliquots were taken from 2 of 3 replicate wells at 0.5×MIC and combined into 900 μL of fresh cation-adjusted Mueller-Hinton medium. The OD600 was measured and the cell suspensions were inoculated into polypropylene 96-well round bottom plates (90 μL volumes) at approximately 5×10^5 cfu/mL. Ten μL of compound stock solutions were added previously to the wells to achieve the concentration ranges for each compound described above. All samples were performed in triplicate. The plates were incubated for 24 hours at 37° C. This process was repeated for a total of 17 passages and MIC values were recorded at each passage.
# [7] = test system: S. aureus (ATCC 13709); experiment: Mouse thigh burden model; format: in vivo; conditions: for bacterial reduction vs inoculated control group: thighs at 25 hours
# Procedure: Female 6-7-week old CD-1 mice were made neutropenic with cyclophosphamide (150 mg/kg, i.p.) on days 4 and 1 before i.m. inoculation with S. aureus (ATCC 13709). S. aureus inoculum was prepared by transferring colonies from 18-20-hour tryptic soy agar (TSA) cultures to sterile PBS. The density was adjusted to approximately 10^6 cfu/mL with the aid of a spectrophotometer, and the inoculum concentration was determined by the dilution plate count method. Mice were inoculated by injecting each posterior thigh with 0.1 mL of inoculum. Compound A was given to separate groups of mice (4 females/group) by i.v. bolus doses of 1 or 2 mg/kg/dose at 1 and 5, 1 and 9, or 1 and 13 hours post inoculation as shown in Table 5. A separate control group of 4 mice received the inoculum without antibiotic treatment. Compound A was dissolved 50%/50% v/v sterile USP purified water/PBS. Thighs were harvested at 25 hours after inoculation. Thigh muscle and bone tissue were homogenized, aliquots of serial dilutions were plated on TSA and incubated at 37° C. for 20 hours, and colony counts were obtained to calculate cfu/thigh.
# [8] = test system: MSSA 29213; experiment: Mouse thigh burden model against MSSA 29213; format: in vivo
# [9] = test system: S. aureus; experiment: MIC or MIC90 vs S. aureus (selectivity table); format: cell-based; conditions: Staphylococcus aureus; * marks MIC90
# [10] = test system: MSSA ATCC 29213; experiment: Serial passage resistance, MSSA; format: cell-based, S. aureus; conditions: 0.5×MIC, 17 passages
# Procedure: as §2
# [11] = In vitro metabolic stability, blood plasma; format: in vitro ADME; conditions: 5 μM, 37° C.
# Procedure: Pooled plasma samples from human (mixed gender), rat (mixed breed and gender) and dog (mixed breed and gender) were incubated with Compound A (5 μM) at 37° C. for 0 and 60 minutes (duplicate samples). Incubations were terminated by addition of ice-cold precipitation solvent (acetonitrile:glacial acetic acid, 9:1 v/v). Supernatants were diluted with equal volume of 0.1% formic acid and analyzed by HPLC-MS/MS. Plasma stability is reported as % parent compound at 60 minutes relative to amount of parent at 0 minutes.
# [12] = test system: MRSA 33591; experiment: Mouse thigh burden model against MRSA 33591; format: in vivo
# [13] = test system: MSSA 27660; experiment: Mouse peritonitis/sepsis model against MSSA 27660; format: in vivo
compound,measurement,setting,value
"N=C(N)NCCCCC(=O)Nc1cc(C(F)(F)F)cc(NC(=O)c2cc(C(=O)Nc3cc(C(F)(F)F)cc(NC(=O)CCCCNC(=N)N)c3O[C@H]3CCNC3)ncn2)c1O[C@H]1CCNC1 [Compound A, pyrimidine-4,6-dicarboxylic acid bis-{[3-(5-guanidino-pentanoylamino)-2-((R)-pyrrolidin-3-yloxy)-5-trifluoromethyl-phenyl]-amide}tetrahydrochloride]",stability in the presence of plasma and isolated hepatocytes,[1],stable
same,time to reduction of 3 log10 units in the initial inoculum,[2]; 2×MIC,5 hours
same,MIC,"[2]; Staphylococcus aureus, ATCC27660, MIC used in time-kill study",1 µg/mL
same,re-growth in the cultures,[2]; over 72 hours at 1×MIC,No re-growth
same,MTD,[3],> 24 mg/kg
same,Selectivity (EC50/MIC) 3T3,[4],430
same,EC50 at 1 h,[5],430 µg/mL
same,change in MIC values on serial passage,[6],did not result in any change; also recorded: no change
same,bacterial reduction vs inoculated control group,[7]; 2 mg/kg/dose i.v. bolus at 1 and 5 hours after inoculation,3.96 logs
same,bacterial reduction vs inoculated control group,[7]; 2 mg/kg/dose i.v. bolus at 1 and 9 hours after inoculation,3.93 logs
same,static efficacy dose in the thigh burden model,[7]; mouse,2 to 4 mg/kg
same,efficacy in vivo,[8],efficacious
same,MIC90,[9],1 µg/mL
same,change in MIC values on serial passage,[10],did not result in any change; also recorded: no change
same,Plasma Stability (%),"[11]; Dog (mixed breeds), 60 minutes",100%
same,Plasma Stability (%),"[11]; Human, parent at 60 minutes relative to 0 minutes",96%
same,Plasma Stability (%),"[11]; Rat (mixed breeds), 60 minutes",102%
same,efficacy in vivo,[12],efficacious
same,efficacy in vivo,[13],efficacious
